In US20250092056A1, “URACIL DERIVATIVES HAVING VIRUS REPLICATION INHIBITORY ACTIVITY AND PHARMACEUTICAL COMPOSITION COMPRISING THE SAME” (Shionogi & Co., Ltd., priority 2022, published 2025):
Values joined by “and” are separate entries in the source; they are usually repeats but may differ in a detail not shown here. Equal entries are not always repeated. Where two headings read alike, the source gives them in different places.

Key:
SARS-CoV-2 = test: Cytopathic effect (CPE) suppression effect confirmation test using HEK293T/ACE2-TMPRSS2 cells; assay type: cell-based
[1] = biological target: Recombinant SARS-CoV-2 3CL Protease (Severe acute respiratory syndrome coronavirus 2 (2019-nCoV) (SARS-CoV-2), UniProt P0DTD1); test: biochemical; assay type: biochemical; conditions: 50% SARS-CoV-2 3CL protease inhibitory concentration; read-out: IC50
[2] = Severe acute respiratory syndrome coronavirus 2, HEK-293T, 72 h, HEK293T/ACE2-TMPRSS2 cells, CPE suppression, CellTiter-Glo 2.0 after 3 days culture, read-out: EC50 (50% SARS-CoV-2 infected cell death inhibitory concentration), class
[3] = Severe acute respiratory syndrome coronavirus 2, HEK-293T, 72 h, read-out: EC50 (50% SARS-CoV-2 infected cell death inhibitory concentration), class, HEK293T/ACE2-TMPRSS2 cells, CPE suppression, CellTiter-Glo 2.0 after 3 days culture
[4] = Severe acute respiratory syndrome coronavirus 2, HEK-293T, 72 h, read-out: EC50 (50% SARS-CoV-2 infected cell death inhibitory concentration), HEK293T/ACE2-TMPRSS2 cells, CPE suppression, CellTiter-Glo 2.0 after 3 days culture

Row | SMILES | EC50 (SARS-CoV-2; [2]) | IC50 [1] | EC50 (SARS-CoV-2; [3]) | EC50 (SARS-CoV-2; read-out: EC50 (50% SARS-CoV-2 infected cell death inhibitory concentration), class, HEK293T/ACE2-TMPRSS2 cells, CPE suppression, CellTiter-Glo 2.0 after 3 days culture) | EC50 (SARS-CoV-2; [4])
1 | N#CCn1c(N2CC3(CCOC3)C2)c(Cc2cc(F)c(F)c(F)c2)c(=O)n(-c2cnc3cc(F)ccn23)c1=O [Compound I-145] | 100 to 1000 nM | 10 to 100 nM |  |  | 
2 | N#CCn1c(N2C[C@H]3C[C@@H]2CN3)c(-c2ccc(F)c(Cl)c2)c(=O)n(-c2cncc(Cl)c2)c1=O [Compound I-146] |  | < 10 nM | 100 to 1000 nM |  | 
3 | N#CCn1c(N2CC3(CCOC3)C2)c(-c2ccc(F)c(Cl)c2)c(=O)n(-c2cnc3cc(F)ccn23)c1=O [Compound I-147] |  | < 10 nM | < 100 nM |  | 
4 | N#CCn1c(N2CCC(F)(F)C2)c(-c2ccc(F)c(Cl)c2)c(=O)n(-c2cncc(Cl)c2)c1=O [Compound I-148] |  | < 10 nM | < 100 nM |  | 
5 | N#CCn1c(N2CC3(C2)CC(F)(F)C3)c(-c2ccc(F)c(Cl)c2)c(=O)n(-c2cnc3cc(F)ccn23)c1=O [Compound I-149] |  | < 10 nM | < 100 nM |  | 
6 | N#CCn1c(N2CCC(O)(C(F)(F)F)CC2)c(-c2ccc(F)c(Cl)c2)c(=O)n(-c2cnc3cc(F)ccn23)c1=O [Compound I-150] |  | < 10 nM | < 100 nM |  | 
7 | N#CCn1c(N2CC(F)(C3CC3)C2)c(-c2ccc(F)c(Cl)c2)c(=O)n(-c2cnc3cc(F)ccn23)c1=O [Compound I-151] |  | < 10 nM | < 100 nM |  | 
8 | N#CCn1c(N2CC3(CCCO3)C2)c(-c2ccc(F)c(Cl)c2)c(=O)n(-c2cnc3cc(F)ccn23)c1=O [Compound I-152] |  | < 10 nM | < 100 nM |  | 
9 | N#CCn1c(N2CCC(C(F)(F)F)CC2)c(-c2ccc(F)c(Cl)c2)c(=O)n(-c2cnc3cc(F)ccn23)c1=O [Compound I-153] |  | < 10 nM | < 100 nM |  | 
10 | N#CCn1c(N2Cc3ccccc3C2)c(Cc2cc(F)c(F)c(F)c2)c(=O)n(-c2nnc3ccccn23)c1=O [Compound I-156] | < 100 nM | 10 to 100 nM |  |  | 
11 | Cn1c(-n2c(=O)c(Cc3cc(F)c(F)c(F)c3)c(N3Cc4ccccc4C3)n(CC#N)c2=O)cc(=O)n1C [Compound I-157] |  | > 100 nM | 1000 to 5000 nM |  | 
12 | Cc1cc(-n2c(=O)c(Cc3cc(F)c(F)c(F)c3)c(N3Cc4ccccc4C3)n(CC#N)c2=O)cc(=O)[nH]1 [Compound I-159] | 100 to 1000 nM | 10 to 100 nM |  |  | 
13 | Cc1cnnc(-n2c(=O)c(-c3ccc(F)c(Cl)c3)c(N3CC4(CCOC4)C3)n(CC#N)c2=O)c1 [Compound I-160] |  | < 10 nM | < 100 nM |  | 
14 | Cc1cc(-n2c(=O)c(-c3ccc(F)c(Cl)c3)c(N3CC4(CCOCC4)C3)n(CC#N)c2=O)cc(=O)[nH]1 [Compound I-161] |  | < 10 nM | 1000 to 5000 nM |  | 
15 | Cc1cc(-n2c(=O)c(-c3ccc(F)c(Cl)c3)c(N3CCC(C(F)(F)F)CC3)n(CC#N)c2=O)cc(=O)[nH]1 [Compound I-162] | 100 to 1000 nM | 10 to 100 nM |  |  | 
16 | Cc1cc(-n2c(=O)c(-c3ccc(F)c(Cl)c3)c(N3CC4(C3)CC(F)(F)C4)n(CC#N)c2=O)cc(=O)[nH]1 [Compound I-163] |  | < 10 nM | 100 to 1000 nM |  | 
17 | Cc1[nH]ncc1-n1c(=O)c(Cc2cc(F)c(F)c(F)c2)c(N2Cc3ccccc3C2)n(CC#N)c1=O [Compound I-164] |  | > 100 nM | < 100 nM | 100 to 1000 nM | 
18 | N#CCn1c(N2Cc3ccccc3C2)c(C(=O)c2cc(F)c(F)c(F)c2)c(=O)n(-c2cncc(Cl)c2)c1=O [Compound I-165] |  | 3800 nM |  |  | 228 nM
19 | CC1(C)CCN(c2c(-c3ccc(F)c(Cl)c3)c(=O)n(-c3cc4n(c(=O)c3)CCC4)c(=O)n2CC#N)CC1 [Compound I-166] |  | > 100 nM | 1000 to 5000 nM |  | 
20 | N#CCn1c(N2Cc3ccccc3C2)c(Sc2cc(F)c(F)c(F)c2)c(=O)n(-c2cncc(Cl)c2)c1=O [Compound I-167] |  | 49 nM |  |  | 26.3 nM
21 | N#CCn1c(-c2cc3ccccc3s2)c(Sc2cc(F)c(F)c(F)c2)c(=O)n(-c2cncc(Cl)c2)c1=O [Compound I-168] | < 100 nM | 10 to 100 nM |  |  | 
22 | N#CCn1c(N2CCC(F)(F)CC2)c(-c2cccc(C#N)c2)c(=O)n(-c2cncc(Cl)c2)c1=O [Compound I-169] | < 100 nM | 10 to 100 nM |  |  | 
23 | Cc1cc(-n2c(=O)c(-c3ccc(F)c(Cl)c3)c(N3CCC(C)(C)CC3)n(CC#N)c2=O)cc(=O)[nH]1 [Compound I-170] | < 100 nM | 10 to 100 nM |  |  | 
24 | N#CCn1c(N2CC3(CCOC3)C2)c(-c2ccccc2)c(=O)n(-c2cncc(Cl)c2)c1=O [Compound I-171] |  | < 10 nM | < 100 nM |  | 
25 | Cc1cc(-n2c(=O)c(-c3ccc(F)c(Cl)c3)c(N3C[C@H]4CCCC[C@H]4C3)n(CC#N)c2=O)cc(=O)[nH]1 [Compound I-172] |  | < 10 nM | < 100 nM |  | 
26 | Cc1cc(-n2c(=O)c(-c3ccc(F)c(Cl)c3)c(-c3cc4ccccc4s3)n(CC#N)c2=O)cc(=O)[nH]1 [Compound I-173] |  | < 10 nM | < 100 nM |  | 

Row | SMILES | EC50 (SARS-CoV-2; [2]) | IC50 [1] | EC50 (SARS-CoV-2; [3]) | EC50 (SARS-CoV-2; read-out: EC50 (50% SARS-CoV-2 infected cell death inhibitory concentration), class, HEK293T/ACE2-TMPRSS2 cells, CPE suppression, CellTiter-Glo 2.0 after 3 days culture) | EC50 (SARS-CoV-2; [4])
27 | N#CCn1c(N2CCC(F)(F)CC2)c(-c2cccc(Cl)c2)c(=O)n(-c2cncc(Cl)c2)c1=O [Compound I-174] |  | < 10 nM | < 100 nM |  | 
28 | CC1(C)CN(c2c(-c3cccc(C#N)c3)c(=O)n(-c3cncc(Cl)c3)c(=O)n2CC#N)C1 [Compound I-175] |  | < 10 nM | < 100 nM |  | 
29 | CC1(C)CCN(c2c(-c3cccc(C#N)c3)c(=O)n(-c3cncc(Cl)c3)c(=O)n2CC#N)CC1 [Compound I-176] |  | < 10 nM | < 100 nM |  | 
30 | N#CCn1c(N2CC3(CCOC3)C2)c(-c2cccc(C(F)F)c2)c(=O)n(-c2cncc(Cl)c2)c1=O [Compound I-177] |  | < 10 nM | < 100 nM |  | 
31 | CC1(C)[C@@H]2CN(c3c(-c4cccc(Cl)c4)c(=O)n(-c4cncc(Cl)c4)c(=O)n3CC#N)C[C@@H]21 [Compound I-178] |  | < 10 nM | < 100 nM |  | 
32 | N#CCn1c(N2CC3(CCOC3)C2)c(-c2cc(Cl)cc(C#N)c2)c(=O)n(-c2cncc(Cl)c2)c1=O [Compound I-179] |  | < 10 nM | < 100 nM |  | 
33 | N#CCn1c(N2CC3(CCOC3)C2)c(-c2cc(F)cc(Cl)c2)c(=O)n(-c2cncc(Cl)c2)c1=O [Compound I-180] |  | < 10 nM | < 100 nM |  | 
34 | N#CCn1c(N2CC3(CCOC3)C2)c(-c2ccc(F)c(Cl)c2)c(=O)n(-c2cncc(Cl)c2)c1=O [Compound I-181] |  | < 10 nM | < 100 nM |  | 
35 | N#CCn1c(N2CC3(CCOC3)C2)c(-c2cccc(Cl)c2)c(=O)n(-c2cncc(Cl)c2)c1=O [Compound I-182] |  | 0.4 nM |  |  | 1.7 nM
36 | Cc1cc(-n2c(=O)c(-c3ccc(F)c(Cl)c3)c(-c3ccc(C4CC4)cc3)n(CC#N)c2=O)cc(=O)[nH]1 [Compound I-183] |  | 10 to 100 nM and < 10 nM | < 100 nM |  | 
37 | Cc1cc(-n2c(=O)c(-c3ccc(F)c(Cl)c3)c(C#CC3CC3)n(CC#N)c2=O)cc(=O)[nH]1 [Compound I-184] |  | > 100 nM | 100 to 1000 nM |  | 
38 | N#CCc1c(N2Cc3ccccc3C2)n(Cc2cc(F)c(F)c(F)c2)c(=O)n(-c2cncc(Cl)c2)c1=O [Compound I-185] |  | 27 nM |  |  | 40.5 nM
39 | Cc1cc(-n2c(=O)c(-c3ccc(F)c(Cl)c3)c(N3CC4(CCOC4)C3)n(CC#N)c2=O)cnn1 [Compound I-188] | 100 to 1000 nM | 10 to 100 nM |  |  | 
40 | Cc1cc(-n2c(=O)c(-c3ccc(F)c(Cl)c3)c(-c3nc4ccccc4s3)n(CC#N)c2=O)cc(=O)[nH]1 [Compound I-189] |  | < 10 nM | < 100 nM |  | 
41 | N#CCn1c(N2CC3(CCOC3)C2)c(-c2ccc(F)c(Cl)c2)c(=O)n(-c2cncc(C(F)(F)F)n2)c1=O [Compound I-190] |  | < 10 nM | < 100 nM |  | 
42 | N#CCn1c(N2CC3(CCOC3)C2)c(-c2ccc(F)c(Cl)c2)c(=O)n(-c2cncc(Cl)n2)c1=O [Compound I-191] |  | < 10 nM | < 100 nM |  | 
43 | Cc1cncc(-n2c(=O)c(-c3ccc(F)c(Cl)c3)c(N3CC4(CCOC4)C3)n(CC#N)c2=O)n1 [Compound I-192] |  | < 10 nM | < 100 nM |  | 
44 | Cc1cncc(-n2c(=O)c(-c3ccc(F)c(Cl)c3)c(N3CC4(CCCO4)C3)n(CC#N)c2=O)n1 [Compound I-195] |  | < 10 nM | < 100 nM |  | 
45 | Cc1cncc(-n2c(=O)c(-c3ccc(F)c(Cl)c3)c(N3CC(C)(C)C3)n(CC#N)c2=O)n1 [Compound I-196] |  | < 10 nM | < 100 nM |  | 
46 | Cc1cncc(-n2c(=O)c(-c3ccc(F)c(Cl)c3)c(N3CCC(F)(F)CC3)n(CC#N)c2=O)n1 [Compound I-197] |  | < 10 nM | < 100 nM |  | 
47 | Cc1cncc(-n2c(=O)c(-c3ccc(F)c(Cl)c3)c(N3CC4(C3)CC(F)(F)C4)n(CC#N)c2=O)n1 [Compound I-198] |  | < 10 nM | < 100 nM |  | 
48 | Cc1cncc(-n2c(=O)c(-c3ccc(F)c(Cl)c3)c(N3CCC(C(F)(F)F)CC3)n(CC#N)c2=O)n1 [Compound I-199] |  | < 10 nM | < 100 nM |  | 
49 | Cc1cc(-n2c(=O)c(-c3cc(Cl)cc(C(F)(F)F)c3)c(N3CCC(C(F)(F)F)CC3)n(CC#N)c2=O)cc(=O)[nH]1 [Compound I-200] | < 100 nM | 10 to 100 nM |  |  | 
50 | Cc1cc(-n2c(=O)c(-c3cc(Cl)cc(C(F)(F)F)c3)c(N3CC4(C3)CC(F)(F)C4)n(CC#N)c2=O)cc(=O)[nH]1 [Compound I-201] |  | < 10 nM | 100 to 1000 nM |  | 
51 | COc1ccc(Oc2c(Cc3cc(F)c(F)c(F)c3)c(=O)n(-c3cncc(C)c3)c(=O)n2CC#N)cc1 [Compound I-202] |  | 37 nM |  |  | 613 nM
